Results on 5 compounds are retold here after patent US5900436A, “Substituted indanylidineacetylguanidines, processes for their preparation, their use as medicaments or diagnostics and medicaments containing them” (priority 1996, dated 1999).

In one assay the target is T1, Na^+ /H^+ exchanger (Oryctolagus cuniculus, UniProt P23791).
T1 construct: increase the exchanger activity in the rabbit erythrocytes; endogenous in cells; host or cells: erythrocytes in blood of cholesterol-fed New Zealand albino rabbits
Description: Sodium-Proton exchange inhibition in rabbit erythrocytes. The assay is classed as cell-based, rabbit (Albino rabbits of New Zealand strain). Particulars: concentration necessary to reduce the erythrocyte sodium content to 50%; erythrocytes of rabbits fed 2% cholesterol diet six weeks; 37° C., 1 hour, hyperosmolar sucrose buffer with ouabain. The source says: Sodium -Proton exchange inhibition in rabbit erythrocytes:
Albino rabbits of New Zealand strain were fed with 2% cholesterol diet for six weeks prior to collecting blood for the determination of Na^+ /H^+ exchanger activity in the erythrocytes. Hypercholesteremia has been reported to increase the exchanger activity in the rabbit erythrocytes (Scholz et al, 1990; Arteriosklerose-Neue Aspekte aus Zellbiologie und Molekulargenetik, Epidemiologie und Klinik; Assmann, G. et al, Eds, Braunschweig, Wiesbaden, Vieweg, 296-302 ). Blood samples were collected from the ear vein and hematocrit was determined. About […] of blood was incubated at 37° C. for 1 hour with hyperosmolar sucrose buffer containing 0.1 mmoles Ouabain in the presence and absence of test sample. After the incubation period, the reaction was stopped by addition of 5 ml of ice cold MgCl2 solution containing 0.1 mmole Ouabain. The erythrocytes were washed three times with 5 ml quantities of MgCl2 solution. They were hemolyzed by the addition of 4 ml of distilled water and the sodium content of the hemolyzate was determined by flame-photometry. The activity of the test compound was determined by its ability to reduce the sodium content of the erythrocyte and was expressed as IC50 which is the concentration necessary to reduce the erythrocyte sodium content to 50%.

A further assay has as its system rat hearts. Particulars: isolated rat hearts, cited from earlier work.
The conditions of assay [1]: Circulation 79, 1257-1263 (1989); cited from earlier work.

pIC50: −log10 of the molar value.

T1 sequence (P23791 whole entry): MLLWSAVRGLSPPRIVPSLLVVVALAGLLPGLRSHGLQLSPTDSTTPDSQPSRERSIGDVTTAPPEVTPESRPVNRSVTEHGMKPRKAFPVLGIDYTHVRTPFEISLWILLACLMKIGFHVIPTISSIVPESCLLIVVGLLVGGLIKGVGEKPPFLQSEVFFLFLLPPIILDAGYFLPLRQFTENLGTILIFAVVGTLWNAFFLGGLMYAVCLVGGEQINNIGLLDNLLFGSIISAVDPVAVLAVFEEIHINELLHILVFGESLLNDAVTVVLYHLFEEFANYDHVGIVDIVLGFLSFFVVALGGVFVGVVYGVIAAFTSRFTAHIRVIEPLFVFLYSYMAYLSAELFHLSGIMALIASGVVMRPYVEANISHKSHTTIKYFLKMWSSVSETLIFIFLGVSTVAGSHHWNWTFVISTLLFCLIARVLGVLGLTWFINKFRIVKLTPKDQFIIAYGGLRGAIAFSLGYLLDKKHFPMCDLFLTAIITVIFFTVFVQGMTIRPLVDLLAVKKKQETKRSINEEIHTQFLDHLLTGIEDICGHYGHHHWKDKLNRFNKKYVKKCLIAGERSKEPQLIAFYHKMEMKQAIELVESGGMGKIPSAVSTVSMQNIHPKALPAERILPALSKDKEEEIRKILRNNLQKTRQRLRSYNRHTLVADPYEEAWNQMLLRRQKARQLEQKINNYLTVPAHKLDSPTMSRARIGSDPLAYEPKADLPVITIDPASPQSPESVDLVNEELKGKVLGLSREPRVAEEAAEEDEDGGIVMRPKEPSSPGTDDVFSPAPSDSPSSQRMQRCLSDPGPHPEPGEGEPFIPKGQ

Consider `Cc1cccc2c1CCC2=CC(=O)N=C(N)N` [Compound No. 4, 4-methyl-1-indanylidineacetyl-guanidine-methanesulfonic acid], for which the pIC50 – broadly, the IC50 on a negative log10 scale, so that one unit is a factor of ten – against Na^+ /H^+ exchanger was 6.15. For the compound `N=C(N)NC(=O)c1nc(Cl)c(N)nc1N` [amiloride], the “suppression of artificially induced ventricular fibrillation” value in the assay on rat hearts (Eur. Heart J. 9 {supplement 1}: 167 (1988)) is “suppress an artificially induced ventricular fibrillation completely”. In addition, the antiarrhythmic effect entry in assay [1] is listed as “only slight”.

On Na^+ /H^+ exchanger, `COc1ccc2c(c1)C(=CC(=O)N=C(N)N)CC2` [compound 6] had a pIC50 of 6.18. On to `Cc1ccc2c(c1)CCC2=CC(=O)N=C(N)N` [compound 7], for which, at Na^+ /H^+ exchanger, the negative-log IC50 (pIC50) is 6.35. As to `CCN(c1nc(N)c(C(=O)N=C(N)N)nc1Cl)C(C)C` [ethylisopropylamiloride], the “potency relative to amiloride against artificially induced ventricular fibrillation” value in the assay on rat hearts is reported as “even more potent than amiloride”.
